# Data taken from US10508120B2, “TYK2 inhibitors and uses thereof” (Nimbus Lakshmi, Inc., priority 2017, dated 2019).
# Columns and labels:
# [1] = target: human TYK2 (JH2domain-pseudokinase) (Homo sapiens (Human), UniProt P29597); experiment: TYK2 JH2 Domain Binding Assay (KINOMEscan)
# How it was run: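 Kds, run in duplicate, came from Hill fits (slope fixed at −1) of an 11-point 3-fold dilution series starting at 30,000 nM. Bead-retained TYK2 JH2 (aa G556–D888)–NFkB DBD fusion, DNA-tagged and expressed in HEK293 cells, was read by qPCR after 1 h room-temperature binding in 0.9% DMSO.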
# JAK2 kinase domain (JH1) = JAK2 kinase domain (JH1) (Homo sapiens (Human), UniProt O60674); experiment: JAK2 Radioactive Kinase Assay; format: biochemical; details: compound at 10 μM; ATP 10 μM; read-out: JAK2 JH1% Inhibition @ 10 μM
# Chain of JAK2 kinase domain (JH1) (O60674 849-1124): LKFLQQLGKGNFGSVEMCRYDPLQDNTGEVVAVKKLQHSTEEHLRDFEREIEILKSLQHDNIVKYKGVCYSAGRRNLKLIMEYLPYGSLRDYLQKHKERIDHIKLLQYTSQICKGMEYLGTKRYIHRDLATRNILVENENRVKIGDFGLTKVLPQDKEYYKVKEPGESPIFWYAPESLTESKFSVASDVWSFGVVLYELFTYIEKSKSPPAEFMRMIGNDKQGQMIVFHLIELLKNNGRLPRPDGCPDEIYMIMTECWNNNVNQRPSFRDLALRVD
# How it was run: (§1)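 Each kinase domain is incubated with test compound at 10 μM. Activity is then measured radiometrically and expressed as percent inhibition relative to uninhibited enzyme.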
# Tyk2 kinase domain (DH1) = Tyk2 kinase domain (DH1) (Homo sapiens (Human), UniProt P29597); experiment: Tyk2 Radioactive Kinase Assay; format: biochemical; details: compound at 10 μM; ATP 10 μM; read-out: Tyk2 JH1% Inhibition @ 10 μM
# Chain of Tyk2 kinase domain (DH1) (P29597 897-1176): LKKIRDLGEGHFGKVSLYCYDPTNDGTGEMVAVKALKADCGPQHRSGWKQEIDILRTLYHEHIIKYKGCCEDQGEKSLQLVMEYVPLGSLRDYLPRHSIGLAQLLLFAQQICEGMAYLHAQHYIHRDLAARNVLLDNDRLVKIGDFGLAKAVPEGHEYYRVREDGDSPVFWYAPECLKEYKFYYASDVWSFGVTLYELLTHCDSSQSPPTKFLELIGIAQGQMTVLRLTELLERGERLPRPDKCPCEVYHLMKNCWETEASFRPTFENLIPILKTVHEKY
# How it was run: as §1
# Chain of human TYK2 (JH2domain-pseudokinase) (P29597 556-888): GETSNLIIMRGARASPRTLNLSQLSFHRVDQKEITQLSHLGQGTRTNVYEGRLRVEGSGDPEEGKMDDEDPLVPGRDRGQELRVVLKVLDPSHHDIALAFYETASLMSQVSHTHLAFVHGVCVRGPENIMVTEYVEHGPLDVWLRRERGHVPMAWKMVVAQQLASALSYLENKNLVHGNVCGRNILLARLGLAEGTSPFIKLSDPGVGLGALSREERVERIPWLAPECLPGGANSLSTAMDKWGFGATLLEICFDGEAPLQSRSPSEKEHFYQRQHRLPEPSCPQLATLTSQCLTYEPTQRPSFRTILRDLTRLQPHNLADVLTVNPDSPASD
Compound,Kd [1] [nM],inhibition at 10 µM (JAK2 kinase domain (JH1)) [%],inhibition at 10 µM (Tyk2 kinase domain (DH1)) [%]
CNc1cc(Nc2cccn(C3CCN(C)CC3)c2=O)nc2c(C(=O)N[C@H]3C[C@H]3F)cnn12 [I-349],< 0.2,< 50,< 50
CNc1cc(Nc2cccn([C@@H]3CCCOC3)c2=O)nc2c(C(=O)NC3CCC3)cnn12 [I-353],< 0.2,< 50,< 50
CNc1cc(Nc2cccnc2C(C)(F)F)nc2c(C(=O)NCC(C)(C)CO)cnn12 [I-355],0.2 to 1,< 50,< 50
CNc1cc(Nc2cccn([C@H]3CC[C@@H](OC)CC3)c2=O)nc2c(C(=O)NC3CC3)cnn12 [I-356],< 0.2,< 50,< 50
CNc1cc(Nc2cccn([C@H]3CC[C@@H](OC)CC3)c2=O)nc2c(C(=O)NC3CCC3)cnn12 [I-358],< 0.2,< 50,< 50
CNc1cc(Nc2cccn([C@H]3CC[C@](C)(OC)CC3)c2=O)nc2c(C(=O)NC3CC3)cnn12 [I-361],< 0.2,< 50,< 50
CNc1cc(Nc2cccn(CC3CCCCO3)c2=O)nc2c(C(=O)NC3CC3)cnn12 (stereo not drawn) [I-364],< 0.2,< 50,< 50
CNc1cc(Nc2cccnc2OC2CN(CC(F)(F)F)C2)nc2c(C(=O)NC3CC3)cnn12 [I-367],0.2 to 1,< 50,< 50
"COc1ncccc1Nc1cc(NCCCN2CCOCC2)n2ncc(C(=O)NC3CC3)c2n1 [I-376, N-cyclopropyl-5-((2-methoxypyridin-3-yl)amino)-7-((3-morpholinopropyl)amino)pyrazolo[1,5-a]pyrimidine-3-carboxamide]",0.2 to 1,< 50,< 50
CNc1cc(Nc2cccc(N3CCCC3)n2)nc2c(C(=O)NC3CC3)cnn12 [I-382],0.2 to 1,< 50,< 50
CNc1cc(Nc2cccc(N3CCCC3)n2)nc2c(C(=O)N[C@H]3C[C@H]3F)cnn12 [I-383],0.2 to 1,< 50,< 50
"COc1ncccc1Nc1cc(NCCN2CCOCC2)n2ncc(C(=O)NC3CC3)c2n1 [I-387, N-cyclopropyl-5-((2-methoxypyridin-3-yl)amino)-7-((2-morpholinoethyl)amino)pyrazolo[1,5-a]pyrimidine-3-carboxamide]",1 to 10,< 50,< 50
CNc1cc(Nc2cccn(-c3ccc(C4CCN(C)CC4)cc3)c2=O)nc2c(C(=O)N[C@H]3C[C@H]3F)cnn12 [I-389],< 0.2,< 50,< 50
CNc1cc(Nc2cccn(C(C)C)c2=O)nc2c(C(=O)NC3CC3)cnn12 [I-394],0.2 to 1,< 50,< 50
CNc1cc(Nc2cccnc2OC2CC2)nc2c(C(=O)N[C@@H]3CC[C@H]3O)cnn12 [I-398],0.2 to 1,< 50,< 50
CNc1cc(Nc2cccnc2OC2CC2)nc2c(C(=O)N[C@H]3CC[C@H]3O)cnn12 [I-402],0.2 to 1,< 50,< 50
CNc1cc(Nc2cccn([C@H]3CCC[C@@H]3OC)c2=O)nc2c(C(=O)NC3CC3)cnn12 [I-403],0.2 to 1,< 50,< 50
CNc1cc(Nc2cccn(C[C@H]3CCCCO3)c2=O)nc2c(C(=O)NC3CC3)cnn12 [I-412],0.2 to 1,< 50,< 50
CNc1cc(Nc2cccn([C@H]3CC[C@@](C)(O)CC3)c2=O)nc2c(C(=O)NC3CC3)cnn12 [I-414],0.2 to 1,< 50,< 50
CNc1cc(Nc2cc(F)cn(-c3nn(C)cc3C)c2=O)nc2c(C(=O)N[C@@H]3C[C@@H]3F)cnn12 [I-416],> 10,< 50,< 50
"CNc1cc(Nc2cccnc2OC)nc2c(C(=O)NCCC3CCCO3)cnn12 (stereo not drawn) [I-418, 5-((2-methoxypyridin-3-yl)amino)-7-(methylamino)-N-(2-(tetrahydrofuran-2-yl)ethyl)pyrazolo[1,5-a]pyrimidine-3-carboxamide]",1 to 10,< 50,< 50
"[2H]C([2H])([2H])Oc1ncccc1Nc1cc(NC)n2ncc(C(=O)NCCC3CCCO3)c2n1 (stereo not drawn) [I-419, 5-((2-(methoxy-d3)pyridin-3-yl)amino)-7-(methylamino)-N-(2-(tetrahydrofuran-2-yl)ethyl)pyrazolo[1,5-a]pyrimidine-3-carboxamide]",1 to 10,< 50,< 50
